Test results from patent US10351546B2, “Pyridin-3-yl acetic acid derivatives as inhibitors of human immunodeficiency virus replication” (priority 2015, dated 2019).

Each compound was assayed on NL-RLuc virus (assay: Inhibition of HIV replication (NL-RLuc luciferase reporter virus in MT-2 cells)). Details: Human immunodeficiency virus 1, MT2, 120 h, read-out: Activity.
Format: cell-based
Procedure, shortened: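 The read-out is Renilla luciferase expressed by replication-competent NL-RLuc (nef partly replaced), measured 5 days after infection of MT-2 cells grown with compound dilutions in 10% FBS RPMI. Median effect equation gives EC50 from ≥2 runs; A ≤100 nM, B 100 nM–1 uM, C >1 uM.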
With Cc1cc(F)ccc1CN1CCc2cc(-c3c(CN4CCCC(F)C4)nc(C)c([C@H](OC(C)(C)C)C(=O)O)c3N3CCC(C)(C)CC3)ccc2C1 (stereo partly drawn) [Example 131, (2S)-2-(tert-Butoxy)-2-(4-(4,4-dimethylpiperidin-1-yl)-5-(2-(4-fluoro-2-methylbenzyl)-1,2,3,4-tetrahydroisoquinolin-6-yl)-6-((3-fluoropiperidin-1-yl)methyl)-2-methylpyridin-3-yl)acetic acid] the EC50 was under 0.1 µM.
With Cc1cc(F)ccc1CN1CCc2cc(-c3c(CN4CC[C@H](F)C4)nc(C)c([C@H](OC(C)(C)C)C(=O)O)c3N3CCC(C)(C)CC3)ccc2C1 [Example 132, (S)-2-(tert-Butoxy)-2-(4-(4,4-dimethylpiperidin-1-yl)-5-(2-(4-fluoro-2-methylbenzyl)-1,2,3,4-tetrahydroisoquinolin-6-yl)-6-(((S)-3-fluoropyrrolidin-1-yl)methyl)-2-methylpyridin-3-yl)acetic acid] the EC50 was under 0.1 µM.
Cc1cc(F)ccc1CN1CCc2cc(-c3c(CN4CC[C@@H](F)C4)nc(C)c([C@H](OC(C)(C)C)C(=O)O)c3N3CCC(C)(C)CC3)ccc2C1 [Example 133, (S)-2-(tert-Butoxy)-2-(4-(4,4-dimethylpiperidin-1-yl)-5-(2-(4-fluoro-2-methylbenzyl)-1,2,3,4-tetrahydroisoquinolin-6-yl)-6-(((R)-3-fluoropyrrolidin-1-yl)methyl)-2-methylpyridin-3-yl)acetic acid] was tested, and the EC50 was under 0.1 µM.
Cc1cc(F)ccc1CN1CCc2cc(-c3c(CN4CCC5(CCC5)CC4)nc(C)c([C@H](OC(C)(C)C)C(=O)O)c3N3CCC(C)(C)CC3)ccc2C1 [Example 134, (S)-2-(6-(7-Azaspiro[3.5]nonan-7-ylmethyl)-4-(4,4-dimethylpiperidin-1-yl)-5-(2-(4-fluoro-2-methylbenzyl)-1,2,3,4-tetrahydroisoquinolin-6-yl)-2-methylpyridin-3-yl)-2-(tert-butoxy)acetic acid] was tested, and the EC50 was under 0.1 µM.
Cc1cc(F)ccc1CN1CCc2cc(-c3c(CN4CCC(O)CC4)nc(C)c([C@H](OC(C)(C)C)C(=O)O)c3N3CCC(C)(C)CC3)ccc2C1 [Example 135, (S)-2-(tert-Butoxy)-2-(4-(4,4-dimethylpiperidin-1-yl)-5-(2-(4-fluoro-2-methylbenzyl)-1,2,3,4-tetrahydroisoquinolin-6-yl)-6-((4-hydroxypiperidin-1-yl)methyl)-2-methylpyridin-3-yl)acetic acid] was tested, and the EC50 was under 0.1 µM.
Cc1cc(F)ccc1CN1CCc2cc(-c3c(CN4CCN(C)CC4)nc(C)c([C@H](OC(C)(C)C)C(=O)O)c3N3CCC(C)(C)CC3)ccc2C1 [Example 136, (S)-2-(tert-Butoxy)-2-(4-(4,4-dimethylpiperidin-1-yl)-5-(2-(4-fluoro-2-methylbenzyl)-1,2,3,4-tetrahydroisoquinolin-6-yl)-2-methyl-6-((4-methylpiperazin-1-yl)methyl)pyridin-3-yl)acetic acid] showed an EC50 of under 0.1 µM.
Cc1cc(F)ccc1CN1CCc2cc(-c3c(CN(C)CC4CCOCC4)nc(C)c([C@H](OC(C)(C)C)C(=O)O)c3N3CCC(C)(C)CC3)ccc2C1 [Example 137, (S)-2-(tert-Butoxy)-2-(4-(4,4-dimethylpiperidin-1-yl)-5-(2-(4-fluoro-2-methylbenzyl)-1,2,3,4-tetrahydroisoquinolin-6-yl)-2-methyl-6-((methyl((tetrahydro-2H-pyran-4-yl)methyl)amino)methyl)pyridin-3-yl)acetic acid] showed an EC50 of under 0.1 µM.
Work on Cc1cc(F)ccc1CN1CCc2cc(-c3c(CN4[C@@H]5CC[C@H]4CN(C)C5)nc(C)c([C@H](OC(C)(C)C)C(=O)O)c3N3CCC(C)(C)CC3)ccc2C1 [Example 138, (S)-2-(tert-Butoxy)-2-(4-(4,4-dimethylpiperidin-1-yl)-5-(2-(4-fluoro-2-methylbenzyl)-1,2,3,4-tetrahydroisoquinolin-6-yl)-2-methyl-6-(((1R,5S)-3-methyl-3,8-diazabicyclo[3.2.1]octan-8-yl)methyl)pyridin-3-yl)acetic acid] yielded an EC50 of under 0.1 µM.
Compound Cc1cc(F)ccc1CN1CCc2cc(-c3c(CN)nc(C)c([C@H](OC(C)(C)C)C(=O)O)c3N3CCC(C)(C)CC3)ccc2C1 [Example 139, (S)-2-(6-(Aminomethyl)-4-(4,4-dimethylpiperidin-1-yl)-5-(2-(4-fluoro-2-methylbenzyl)-1,2,3,4-tetrahydroisoquinolin-6-yl)-2-methylpyridin-3-yl)-2-(tert-butoxy)acetic acid] has an EC50 of under 0.1 µM.
Compound CC(=O)NCc1nc(C)c([C@H](OC(C)(C)C)C(=O)O)c(N2CCC(C)(C)CC2)c1-c1ccc2c(c1)CCN(Cc1ccc(F)cc1C)C2 [Example 140, (S)-2-(6-(Acetamidomethyl)-4-(4,4-dimethylpiperidin-1-yl)-5-(2-(4-fluoro-2-methylbenzyl)-1,2,3,4-tetrahydroisoquinolin-6-yl)-2-methylpyridin-3-yl)-2-(tert-butoxy)acetic acid] has an EC50 of under 0.1 µM.
Compound Cc1nnc(C(=O)NCc2nc(C)c([C@H](OC(C)(C)C)C(=O)O)c(N3CCC(C)(C)CC3)c2-c2ccc3c(c2)CCN(Cc2ccc(F)cc2C)C3)o1 [Example 141, (S)-2-(tert-Butoxy)-2-(4-(4,4-dimethylpiperidin-1-yl)-5-(2-(4-fluoro-2-methylbenzyl)-1,2,3,4-tetrahydroisoquinolin-6-yl)-2-methyl-6-((5-methyl-1,3,4-oxadiazole-2-carboxamido)methyl)pyridin-3-yl)acetic acid] has an EC50 of under 0.1 µM.
Compound Cc1cc(F)ccc1CN1CCc2cc(-c3c(CNC(=O)C(=O)N(C)C)nc(C)c([C@H](OC(C)(C)C)C(=O)O)c3N3CCC(C)(C)CC3)ccc2C1 [Example 142, (S)-2-(tert-Butoxy)-2-(6-((2-(dimethylamino)-2-oxoacetamido)methyl)-4-(4,4-dimethylpiperidin-1-yl)-5-(2-(4-fluoro-2-methylbenzyl)-1,2,3,4-tetrahydroisoquinolin-6-yl)-2-methylpyridin-3-yl)acetic acid] has an EC50 of under 0.1 µM.
In the case of CC(=O)N(C)Cc1nc(C)c([C@H](OC(C)(C)C)C(=O)O)c(N2CCC(C)(C)CC2)c1-c1ccc2c(c1)CCN(Cc1ccc(F)cc1C)C2 [Example 143, (S)-2-(tert-Butoxy)-2-(4-(4,4-dimethylpiperidin-1-yl)-5-(2-(4-fluoro-2-methylbenzyl)-1,2,3,4-tetrahydroisoquinolin-6-yl)-2-methyl-6-((N-methylacetamido)methyl)pyridin-3-yl)acetic acid], the EC50 is reported as under 0.1 µM.
Cc1ncn(Cc2nc(C)c([C@H](OC(C)(C)C)C(=O)O)c(N3CCC(C)(C)CC3)c2-c2ccc3c(c2)CCN(Cc2ccc(F)cc2C)C3)n1 [Example 144, (S)-2-(tert-Butoxy)-2-(4-(4,4-dimethylpiperidin-1-yl)-5-(2-(4-fluoro-2-methylbenzyl)-1,2,3,4-tetrahydroisoquinolin-6-yl)-2-methyl-6-((3-methyl-1H-1,2,4-triazol-1-yl)methyl)pyridin-3-yl)acetic acid] was tested, and the EC50 was under 0.1 µM.
With Cc1cc(F)ccc1CN1CCc2cc(-c3c(Cn4ncnc4C)nc(C)c([C@H](OC(C)(C)C)C(=O)O)c3N3CCC(C)(C)CC3)ccc2C1 [Example 145, (S)-2-(tert-butoxy)-2-(4-(4,4-dimethylpiperidin-1-yl)-5-(2-(4-fluoro-2-methylbenzyl)-1,2,3,4-tetrahydroisoquinolin-6-yl)-2-methyl-6-((5-methyl-1H-1,2,4-triazol-1-yl)methyl)pyridin-3-yl)acetic acid] the EC50 was under 0.1 µM.

Same assay, conditions: Human immunodeficiency virus 1, MT2, 120 h, read-out: EC50 μM
Compound Cc1cc(F)ccc1CN1CCc2cc(-c3c(CN4CCC5(CCC5)CC4)nc(C)c([C@H](OC(C)(C)C)C(=O)O)c3N3CCC(C)(C)CC3)ccc2C1 [Example 134, (S)-2-(6-(7-Azaspiro[3.5]nonan-7-ylmethyl)-4-(4,4-dimethylpiperidin-1-yl)-5-(2-(4-fluoro-2-methylbenzyl)-1,2,3,4-tetrahydroisoquinolin-6-yl)-2-methylpyridin-3-yl)-2-(tert-butoxy)acetic acid] has an EC50 of 0.001 µM.
Work on Cc1ncn(Cc2nc(C)c([C@H](OC(C)(C)C)C(=O)O)c(N3CCC(C)(C)CC3)c2-c2ccc3c(c2)CCN(Cc2ccc(F)cc2C)C3)n1 [Example 144, (S)-2-(tert-Butoxy)-2-(4-(4,4-dimethylpiperidin-1-yl)-5-(2-(4-fluoro-2-methylbenzyl)-1,2,3,4-tetrahydroisoquinolin-6-yl)-2-methyl-6-((3-methyl-1H-1,2,4-triazol-1-yl)methyl)pyridin-3-yl)acetic acid] yielded an EC50 of 0.025 µM.
